Test results as given in patent US20250163088A1, “HALF-SANDWICH TRANSITION METAL COMPLEXES AND USES THEREOF” (DEBRECENI EGYETEM, priority 2021, published 2025).
Where two headings read alike, the source gives them in different places.

Assays:
[1] = test system: A2780 human ovarian carcinoma cells; assay: SRB proliferation assay (48 h) on A2780 cells; format: cell-based; conditions: for cytostatic properties in the screen (long-term SRB and short-term MTT assays): A2780 cells, 100 μM-0.0017 μM
Method: The compounds were tested in an assay aiming to assess short term toxicity (methylthiazolyldiphenyl-tetrazolium bromide (MTT) reduction assay, 4 hours) and a long term cytostasis or cytotoxicity (sulphorhodamine B (SRB) proliferation assay, 48 hours) on A2780 human ovarian carcinoma cells.
(§1) SRB accumulation assay assesses protein content in a sample and was used to assess cell proliferation. SRB accumulation assay was performed similarly to (Fodor et al., 2016) as follows. Cells were seeded in 96-well plates. The next day cells were treated with the compounds for 48 hours in the concentrations indicated in a cell incubator. At the end of treatment cells were fixed with 10% trichloroacetic acid (TCA). Fixed cells were stained with SRB (0.4 m/V % dissolved in 1% acetic acid) for 60 minutes. Fixed cells were washed in 1% acetic acid 3 times; acetic acid was removed and cells were left to dry. Protein-bound SRB was released by adding 100 μl 10 mM Tris base. Plates were measured in a plate photometer (Thermo Scientific Multiscan GO spectrophotometer, Waltham, MA, USA) at 540 nm. On each plate wells were designed to contain untreated cells. In calculations the readings for these wells was considered as 1 and all readings were expressed relative to these values.
Statistical analysis was performed using 8.0.1 version of Graphpad Prism. Values were tested for normal distribution using the D'Agostino and Pearson normality test. When necessary, values were log normalized or were normalized using the Box-Cox normalization method (Box and Cox, 1964), as indicated in the figure captions.

[2] = test system: human primary skin fibroblasts; assay: SRB proliferation assay (48 h) on primary fibroblasts; format: cell-based; conditions: for Fibroblast Hill slope / IC50: SRB 48 h, N/A = cannot be calculated/no effect; for IC50: read-out: Fibroblast IC50
Method: (§2) […]. All compounds were tested on two ovarian cancer cell lines (A2780 and ID8) and on human primary skin fibroblasts (non-transformed, primary cells) in MTT and SRB assays. MTT assays were performed 4 hours post-treatment and indicated rapid toxicity of the compounds, while SRB assays were performed 2 days post-treatment and represent long term cytostasis or toxicity.
as §1
(§3) Statistical analysis was performed using 8.0.1 version of Graphpad Prism. Values were tested for normal distribution using the D'Agostino and Pearson normality test. When necessary, values were log normalized or were normalized using the Box-Cox normalization method (Box and Cox, 1964), as indicated in the figure captions. Nonlinear regression was performed using the built-in “[Inhibitor] vs. response—Variable slope (four parameters), least square fit” utility of Graphpad that yielded IC50 and Hill slope values.

[3] = Solubility / precipitation in the test medium; format: physicochemical
[4] = test system: cisplatin-resistant A2780 cell line; assay: SRB proliferation assay (48 h) on cisplatin-resistant A2780 cells; format: cell-based, human
Method: In this experiment, 6×10^3 cisplatin-resistant A2780 cells were plated to 96 well plates. Cells were treated with the compounds in the concentrations indicated for either 4 hours for an MTT assay or for 48 hours for an SRB assay. Data is represented as average ±SD, from three biological replicates; individual assays were performed in duplicates. Values were normalized for vehicle treated cells, absorbance for vehicle treated cells equals to 1. Each compound was assessed individually. Normality was assessed using the Shapiro-Wilk test. […] Statistical significance was assessed using One-way ANOVA test comparing all points to the smallest concentration. Nonlinear regression was performed on the results of the SRB assay datasets.
Cisplatin resistant cells underwent selection (1 μM cisplatin) once a week for 3 days before plating for any assay.
as §1

ID8 ovarian cancer cells = assay: SRB proliferation assay (48 h) on ID8 cells; format: cell-based; conditions: SRB 48 h; for IC50: N/A = cannot be calculated/no effect
Method: as §2, §1, §3

[5] = SRB 48 h, nonlinear regression, N/A = cannot be calculated/no effect, read-out: A2780 IC50

For “2-(2′,3′,4′,6′-Tetra-O-benzoyl-β-D-glucopyranosyl)-5-(pyridin-2-yl)-1,3,4-oxadiazole [Complex L-4]”, the “A2780 SRB Max. (maximal inhibition)” value ([1]; 48 h) was 26.9%.
In the case of `O=C(OC[C@H]1O[C@@H](n2cc(-c3ccccn3)nn2)[C@H](OC(=O)c2ccccc2)[C@@H](OC(=O)c2ccccc2)[C@@H]1OC(=O)c1ccccc1)c1ccccc1` [Complex L-2a, 1-(2′,3′,4′,6′-Tetra-O-benzoyl-β-D-glucopyranosyl)-4-(pyridin-2-yl)-1,2,3-triazole], the “cytostatic effect in long-term SRB assays on A2780 and ID8 cells, in words” value (from here on “cytostatic effect”) ([1]; 48 h) is reported as “none of the corresponding ligands (L-2a, L-4, L-6, L-8) had cytostatic properties”, the “cytostatic properties in the screen (long-term SRB and short-term MTT assays)” value (“cytostatic properties in the screen” below) [1] is reported as “no biological activity” and the “effect on primary human fibroblasts (SRB), in words” value (“effect on primary human fibroblasts” below) [2] is reported as “no effect”.
For `O=C(OC[C@H]1O[C@@H](n2cc(-c3ccc4ccccc4n3)nn2)[C@H](OC(=O)c2ccccc2)[C@@H](OC(=O)c2ccccc2)[C@@H]1OC(=O)c1ccccc1)c1ccccc1` [Complex L-2b, 1-(2′,3′,4′,6′-Tetra-O-benzoyl-β-D-glucopyranosyl)-4-(quinolin-2-yl)-1,2,3-triazole], the “cytostatic effect” value ([1]; 48 h) was “only little cytostatic activity”.
In the case of `O=C(OC[C@H]1O[C@@H](c2nnc(-c3ccccn3)o2)[C@H](OC(=O)c2ccccc2)[C@@H](OC(=O)c2ccccc2)[C@@H]1OC(=O)c1ccccc1)c1ccccc1` [Complex L-4, 2-(2′,3′,4′,6′-Tetra-O-benzoyl-β-D-glucopyranosyl)-5-(pyridin-2-yl)-1,3,4-oxadiazole], the “cytostatic effect” value ([1]; 48 h) is reported as “none of the corresponding ligands (L-2a, L-4, L-6, L-8) had cytostatic properties”, the “cytostatic properties in the screen” value [1] is reported as “no biological activity” and the “effect on primary human fibroblasts” value [2] is reported as “no effect”.
In the case of `CC(=O)OC[C@H]1O[C@@H](c2nnc(-c3ccccn3)o2)[C@H](OC(C)=O)[C@@H](OC(C)=O)[C@@H]1OC(C)=O` [Complex L-5, 2-(2′,3′,4′,6′-Tetra-O-acetyl-β-D-glucopyranosyl)-5-(pyridin-2-yl)-1,3,4-oxadiazole], the “A2780 SRB Max. (maximal inhibition)” value ([1]; 48 h) is reported as 28.5%.
For `O=C(O[C@@H]1[C@@H](OC(=O)c2ccccc2)[C@H](c2nnc(-c3ccccn3)o2)OC[C@H]1OC(=O)c1ccccc1)c1ccccc1` [Complex L-6, 2-(2′,3′,4′-Tri-O-benzoyl-β-D-xylopyranosyl)-5-(pyridin-2-yl)-1,3,4-oxadiazole], the “cytostatic effect” value ([1]; 48 h) was “none of the corresponding ligands (L-2a, L-4, L-6, L-8) had cytostatic properties”, the “cytostatic properties in the screen” value [1] was “no biological activity” and the “solubility of the free ligand for testing” value [3] was “insoluble”. The “effect on primary human fibroblasts” value [2] was “no effect”.
For `O=C(OC[C@H]1O[C@@H](c2nnc(-c3ccccn3)o2)[C@H](OC(=O)c2ccccc2)[C@@H](OC(=O)c2ccccc2)[C@H]1OC(=O)c1ccccc1)c1ccccc1` [Complex L-8, 2-(2′,3′,4′,6′-Tetra-O-benzoyl-β-D-galactopyranosyl)-5-(pyridin-2-yl)-1,3,4-oxadiazole], the “cytostatic effect” value ([1]; 48 h) was “none of the corresponding ligands (L-2a, L-4, L-6, L-8) had cytostatic properties”, the “cytostatic properties in the screen” value [1] was “no biological activity” and the “effect on primary human fibroblasts” value [2] was “no effect”.
With `c1ccc(-n2cc(-c3ccccn3)nn2)cc1` [Complex L-13, 1-phenyl-4-(pyridine-2-yl)-1,2,3-triazole] the “cytostatic activity on A2780 cells in SRB assays, in words” value ([1]; 48 h) was “None of the free ligands, L-13 or L-14 had cytostatic activity”.
For `c1ccc(-c2nnc(-c3ccccn3)o2)cc1` [Complex L-14, 2-phenyl-5-(pyridine-2-yl)-1,3,4-oxadiazole], the “cytostatic activity on A2780 cells in SRB assays, in words” value ([1]; 48 h) was “None of the free ligands, L-13 or L-14 had cytostatic activity”.
For `CCCCCCCC(=O)OC[C@H]1O[C@@H](n2cc(-c3ccccn3)nn2)[C@H](OC(=O)CCCCCCC)[C@@H](OC(=O)CCCCCCC)[C@@H]1OC(=O)CCCCCCC` [L-C7, 1-(2′,3′,4′,6′-Tetra-O-octanoyl-β-D-glucopyranosyl)-4-(pyridin-2-yl)-1,2,3-triazole], the “solubility of the free ligand for testing” value [3] was “insoluble”.
For `CNCc1ccc(-c2[nH]c3cc(F)cc4c3c2CCNC4=O)cc1` [Rucaparib, rucaparib], the “cell proliferation, rucaparib alone” value ([1]; 3 μM, SRB 48 h) was “reduced cell proliferation”.
In the case of `[NH2][Pt]1([NH2])[O]C(=O)C2(CCC2)C(=O)[O]1` [carboplatin], the “effect on primary human fibroblasts” value ([2]; 48 h) is reported as “no effect”.
In the case of `N.N.[Cl][Pt][Cl]` [cisplatin], the “A2780 SRB Hill” value ([1]; 48 h) is reported as 1.20, the IC50 ([1]; 48 h, read-out: A2780 SRB IC50) is reported as 1210 nM and the “A2780 Hill slope” value ([1]; SRB 48 h, nonlinear regression) is reported as 1.20. For the same molecule, the IC50 [1, 5] was 1210 nM, the IC50 ([1]; SRB assay, 48 h, read-out: IC50 value on (cisplatin-sensitive) A2780 cells) was 1210 nM and the “cisplatin resistant A2780 SRB Max. (maximal inhibition)” value ([4]; 48 h) was 100%. The “fold change of IC50, cisplatin resistant vs. cisplatin sensitive A2780” value ([4]; SRB assay) was 13.6 fold, the IC50 ([4]; SRB assay, 48 h) was 16500 nM and the “Fibroblast Hill slope” value [2] was 1.53. The IC50 [2] was 11900 nM, the “ID8 Hill slope” value (ID8 ovarian cancer cells) was 0.99 and the IC50 (ID8 ovarian cancer cells) was 10800 nM.
In the case of `O=C1[O][Pt]2([NH][C@@H]3CCCC[C@H]3[NH]2)[O]C1=O` [oxaliplatin], the “A2780 Hill slope” value ([1]; SRB 48 h, nonlinear regression) is reported as 1.27, the IC50 [1, 5] is reported as 120 nM and the “effect on primary human fibroblasts” value ([2]; 48 h) is reported as “no effect”. For the same molecule, the “Fibroblast Hill slope” value [2] was 0.37, the IC50 [2] was 830 nM and the “ID8 Hill slope” value (ID8 ovarian cancer cells) was 1.58. It also gave an IC50 (ID8 ovarian cancer cells) of 4590 nM.
